Source: the NIST ThermoML archive (doi:10.1016/j.jct.2005.12.005)

Columns and labels:
[1] = refractive index (Na D-line) (dimensionless); xn = mol fraction of the nth substance listed; details: 101 kPa, Liquid
[2] = xn = mol fraction of the nth substance listed; details: 101 kPa, Liquid; for speed of sound: Sing-around technique in a fixed-path interferometer

Cc1cc(C)cc(C)c1 [1,3,5-trimethylbenzene] + CC1CCCCC1
Details	mass density, 298.15 K [kg/m3]	mass density, 303.15 K [kg/m3]	mass density, 308.15 K [kg/m3]	refractive index, 298.15 K	refractive index, 303.15 K	refractive index, 308.15 K	speed of sound, 298.15 K [m/s]	viscosity, 298.15 K [mPa·s]	viscosity, 303.15 K [mPa·s]	viscosity, 308.15 K [mPa·s]
[1], x2 = 0	–	–	–	1.496	1.4936	1.4913	–	–	–	–
[1], x2 = 0.1007	–	–	–	1.489	1.4865	1.4843	–	–	–	–
[1], x2 = 0.1993	–	–	–	1.4817	1.4809	1.4771	–	–	–	–
[1], x2 = 0.3035	–	–	–	1.474	1.473	1.4692	–	–	–	–
[1], x2 = 0.4063	–	–	–	1.4663	1.4647	1.4614	–	–	–	–
[1], x2 = 0.4974	–	–	–	1.4593	1.4565	1.4544	–	–	–	–
[1], x2 = 0.6085	–	–	–	1.4508	1.4529	1.4459	–	–	–	–
[1], x2 = 0.7027	–	–	–	1.4436	1.4421	1.4386	–	–	–	–
[1], x2 = 0.7973	–	–	–	1.4363	1.4347	1.4312	–	–	–	–
[1], x2 = 0.902	–	–	–	1.4285	1.4265	1.4233	–	–	–	–
[2], x2 = 0	861.2	857.1	853	–	–	–	1346	0.667	0.622	0.586
[2], x2 = 0.1007	851.6	847.5	843.3	–	–	–	1328	0.653	0.612	0.577
[2], x2 = 0.1993	842	837.9	833.8	–	–	–	1312	0.638	0.6	0.569
[2], x2 = 0.3035	832	827.9	823.7	–	–	–	1295	0.629	0.592	0.559
[2], x2 = 0.4063	822	817.9	813.7	–	–	–	1280	0.622	0.584	0.553
[2], x2 = 0.4974	813.1	808.9	804.8	–	–	–	1267	0.62	0.603	0.547
[2], x2 = 0.6085	802.2	798.1	793.9	–	–	–	1253	0.621	0.582	0.548
[2], x2 = 0.7027	793.1	788.9	784.7	–	–	–	1244	0.627	0.588	0.553
[2], x2 = 0.7973	784	779.7	775.5	–	–	–	1235	0.638	0.598	0.566
[2], x2 = 0.902	774.1	769.8	765.6	–	–	–	1225	0.654	0.622	0.575

Cc1ccc(C)cc1 [1,4-dimethylbenzene] + CC1CCCCC1
x2 = 0
Details	mass density, 298.15 K [kg/m3]	mass density, 303.15 K [kg/m3]	mass density, 308.15 K [kg/m3]	refractive index, 298.15 K	refractive index, 303.15 K	refractive index, 308.15 K	speed of sound, 298.15 K [m/s]	viscosity, 298.15 K [mPa·s]	viscosity, 303.15 K [mPa·s]	viscosity, 308.15 K [mPa·s]
[1]	–	–	–	1.4926	1.4893	1.4867	–	–	–	–
[2]	856.7	852.3	848	–	–	–	1326	0.611	0.572	0.54

COc1ccccc1 [anisole] + CC1CCCCC1
Details	mass density, 298.15 K [kg/m3]	mass density, 303.15 K [kg/m3]	mass density, 308.15 K [kg/m3]	refractive index, 298.15 K	refractive index, 303.15 K	refractive index, 308.15 K	speed of sound, 298.15 K [m/s]	viscosity, 298.15 K [mPa·s]	viscosity, 303.15 K [mPa·s]	viscosity, 308.15 K [mPa·s]
[1], x2 = 0	–	–	–	1.5136	1.5112	1.5088	–	–	–	–
[1], x2 = 0.1025	–	–	–	1.5023	1.5036	1.4978	–	–	–	–
[1], x2 = 0.2009	–	–	–	1.4917	1.489	1.487	–	–	–	–
[1], x2 = 0.3006	–	–	–	1.4813	1.4801	1.4766	–	–	–	–
[1], x2 = 0.406	–	–	–	1.4706	1.4701	1.4659	–	–	–	–
[1], x2 = 0.5043	–	–	–	1.4609	1.4586	1.4563	–	–	–	–
[1], x2 = 0.6058	–	–	–	1.4516	1.4497	1.4467	–	–	–	–
[1], x2 = 0.7026	–	–	–	1.4431	1.4408	1.4382	–	–	–	–
[1], x2 = 0.8023	–	–	–	1.4351	1.4323	1.4301	–	–	–	–
[1], x2 = 0.9053	–	–	–	1.4278	1.4242	1.4226	–	–	–	–
[2], x2 = 0	989.2	984.5	979.8	–	–	–	1410	1.008	0.929	0.861
[2], x2 = 0.1025	962.1	957.4	952.7	–	–	–	1391	0.924	0.905	0.808
[2], x2 = 0.2009	936.5	931.8	927.2	–	–	–	1372	0.854	0.792	0.737
[2], x2 = 0.3006	911.8	907.2	902.6	–	–	–	1352	0.793	0.734	0.693
[2], x2 = 0.406	886.7	882.2	877.6	–	–	–	1333	0.75	0.694	0.654
[2], x2 = 0.5043	864.4	860.1	855.4	–	–	–	1314	0.717	0.664	0.627
[2], x2 = 0.6058	842.2	837.8	833.3	–	–	–	1294	0.689	0.645	0.605
[2], x2 = 0.7026	821.9	817.3	813	–	–	–	1275	0.675	0.634	0.593
[2], x2 = 0.8023	801.8	797.4	792.9	–	–	–	1256	0.667	0.621	0.584
[2], x2 = 0.9053	782.1	777.8	773.4	–	–	–	1236	0.666	0.622	0.583

c1ccccc1 [benzene] + CC1CCCCC1
x2 = 0
Details	mass density, 298.15 K [kg/m3]	mass density, 303.15 K [kg/m3]	mass density, 308.15 K [kg/m3]	refractive index, 298.15 K	refractive index, 303.15 K	refractive index, 308.15 K	speed of sound, 298.15 K [m/s]	viscosity, 298.15 K [mPa·s]	viscosity, 303.15 K [mPa·s]	viscosity, 308.15 K [mPa·s]
[1]	–	–	–	1.4971	1.4936	1.4903	–	–	–	–
[2]	873.4	868.1	862.7	–	–	–	1302	0.602	0.56	0.523
